Laboratory results from US20090022684A1, “Methods for hematopoietic stimulation” (priority 2006, published 2009).
Where two headings read alike, the source gives them in different places. Positions of bridges follow the written chain, without caps; N, C: chain ends. Residues, ends and D or L forms follow the SMILES beside them.

Assay: Phase I clinical trial: plasma pharmacokinetics of the peptide
Format: in vivo, human
Conditions: for Dose Proportionality Day 1 AUC(0-tlast)/Dose / Dose Proportionality Day 1 Cmax/Dose / Dose Proportionality Day 7 AUC(0-τ)/Dose / Dose Proportionality Day 7 Cmax/Dose / Tmax / Cmax / half-life / AUC(0-t) / AUC / AUC(0-inf) / Vd/F / CL/F: plasma; for Tmax / Cmax / half-life / AUC(0-t) / AUC / AUC(0-inf) / Vd/F / CL/F: human, sc; for AUC(0-t): read-out: AUC(0-tlast); for AUC: read-out: AUC(0-τ); for Vd/F: read-out: Vz/F
Description: A Phase I, single-center, randomized double blind, placebo-controlled, multiple-escalating-dose study in healthy older volunteers was carried out for the peptide [Leu^27]cyclo(Glu^22-Lys^2 1)-hPTH-(1-31)-NH2 (SEQ ID NO: 4). Subjects were healthy males and females (non-reproductive potential), aged 40 to 65 years. […] […] For each dosage level, 2 subjects (I male and I female) received placebo and 6 subjects (3 males and 3 females) received the peptide daily.
Pharmacokinetics. Plasma concentrations of the peptide were analyzed using the WinNonlin 4.0 Noncompartmental module (Pharsight Inc., Mountainview, Calif.) or equivalent. The following pharmacokinetic parameters were computed from the peptide plasma concentration-time data (See FIGS. 4 and 5): • AUC(0-tlast): The area under the plasma concentration versus time curve, from time 0 to the last measurable concentration, as calculated by the linear trapezoidal method (Day 1). • AUC(0-τ): The area under the plasma concentration versus time curve, from time 0 to the last measurable concentration, as calculated by the linear trapezoidal method (Day 7). • AUC(0-∞) or AUCinf: The area under the plasma concentration versus time curve from time 0 to infinity. AUC(0-∞) is calculated as the sum of the AUC(0-tlast) plus the ratio of the last measurable plasma concentration to the elimination rate constant (Clast/kel), where Clast is the predicted concentration at the time of the last measurable concentration, as determined by linear regression, and kel is the apparent first-order elimination rate constant (Day 1). • AUC/AUCinf: The ratio of AUC(0-tlast) to AUC(0-∞). • Cmax: Maximum measured plasma concentration over the time span specified. • Tmax: Time of the maximum measured plasma concentration. If the maximum value occurs at more than one time point, Tmax is defined as the first time point with this value. • kel: Apparent first-order terminal elimination rate constant calculated from a semi-log plot of the plasma concentration versus time curve. This parameter was calculated by linear least squares regression analysis using the maximum number of points in the terminal log-linear phase (e.g. three or more non-zero plasma concentrations). • t1/2: The apparent first-order terminal elimination half-life was calculated as 0.693/kel. • Vz/F: Apparent volume of distribution of a drug following subcutaneous administration, calculated as Dose/( AUC(0-∞)·kel), (Day 1). • CL/F: Apparent total body clearance of a drug following […], calculated as Dose/AUC(0-∞), (Day 1).
Accumulation Index: Calculated as AUC(0-τ) Day 7/AUC(0-tlast) Day 1.

[1] = both sexes, 10 ug, Day 1, 10 μg s.c., geometric mean (CV %)
[2] = both sexes, 10 ug, Day 7, 10 μg s.c. daily, geometric mean (CV %)
[3] = both sexes, 20 ug, Day 1, 20 μg s.c., geometric mean (CV %)
[4] = both sexes, 20 ug, Day 7, 20 μg s.c. daily, geometric mean (CV %)
[5] = both sexes, 40 ug, Day 1, 40 μg s.c., geometric mean (CV %)
[6] = both sexes, 40 ug, Day 7, 40 μg s.c. daily, geometric mean (CV %)
[7] = both sexes, 60 ug, Day 1, 60 μg s.c., arithmetic mean (CV %)
[8] = both sexes, 60 ug, Day 1, 60 μg s.c., geometric mean (CV %)
[9] = both sexes, 60 ug, Day 7, 60 μg s.c. daily, geometric mean (CV %)
[10] = both sexes, 80 ug, Day 1, 80 μg s.c., arithmetic mean (CV %)
[11] = both sexes, 80 ug, Day 1, 80 μg s.c., geometric mean (CV %)
[12] = both sexes, 80 ug, Day 7, 80 μg s.c. daily, geometric mean (CV %)
[13] = both sexes, 20 ug, Day 1, 20 μg s.c., n = 1
[14] = both sexes, 40 ug, Day 1, 40 μg s.c., n = 1

- accumulation (20 μg, 60 μg and 80 μg dose levels): no observed accumulation
- Dose Proportionality Day 1 AUC(0-tlast)/Dose (Dose Level 10 μg): 1.08
- Dose Proportionality Day 1 Cmax/Dose (Dose Level 10 μg): 2.35
- Dose Proportionality Day 7 AUC(0-τ)/Dose (Dose Level 10 μg): 2.06
- Dose Proportionality Day 7 Cmax/Dose (Dose Level 10 μg): 3.13
- Dose Proportionality Day 1 AUC(0-tlast)/Dose (Dose Level 20 μg): 1.10
- Dose Proportionality Day 1 Cmax/Dose (Dose Level 20 μg): 1.66
- Dose Proportionality Day 7 AUC(0-τ)/Dose (Dose Level 20 μg): 1.14
- Dose Proportionality Day 7 Cmax/Dose (Dose Level 20 μg): 1.95
- Dose Proportionality Day 1 AUC(0-tlast)/Dose (Dose Level 30 μg): 3.30
- Dose Proportionality Day 1 Cmax/Dose (Dose Level 30 μg): 2.92
- Dose Proportionality Day 7 AUC(0-τ)/Dose (Dose Level 30 μg): 3.58
- Dose Proportionality Day 7 Cmax/Dose (Dose Level 30 μg): 3.18
- Dose Proportionality Day 1 AUC(0-tlast)/Dose (Dose Level 40 μg): 1.89
- Dose Proportionality Day 1 Cmax/Dose (Dose Level 40 μg): 2.68
- Dose Proportionality Day 7 AUC(0-τ)/Dose (Dose Level 40 μg): 2.68
- Dose Proportionality Day 7 Cmax/Dose (Dose Level 40 μg): 3.19
- Dose Proportionality Day 1 AUC(0-tlast)/Dose (Dose Level 60 μg): 1.61
- Dose Proportionality Day 1 Cmax/Dose (Dose Level 60 μg): 1.85
- Dose Proportionality Day 7 AUC(0-τ)/Dose (Dose Level 60 μg): 1.96
- Dose Proportionality Day 7 Cmax/Dose (Dose Level 60 μg): 2.21
- Tmax (both sexes, 10 ug, Day 1, 10 μg s.c., arithmetic mean (CV %)): 15 min
- Cmax [1]: 0.0235 ng/mL
- Tmax (both sexes, 10 ug, Day 7, 10 μg s.c. daily, arithmetic mean (CV %)): 15 min
- Cmax [2]: 0.0313 ng/mL
- Tmax (both sexes, 20 ug, Day 1, 20 μg s.c., arithmetic mean (CV %)): 20 min
- Cmax [3]: 0.0332 ng/mL
- Tmax (both sexes, 20 ug, Day 7, 20 μg s.c. daily, arithmetic mean (CV %)): 25 min
- Cmax [4]: 0.0391 ng/mL
- Tmax (both sexes, 40 ug, Day 1, 40 μg s.c., arithmetic mean (CV %)): 20.3 min
- Cmax [5]: 0.107 ng/mL
- Tmax (both sexes, 40 ug, Day 7, 40 μg s.c. daily, arithmetic mean (CV %)): 15 min
- Cmax [6]: 0.128 ng/mL
- Tmax [7]: 17.6 min
- Cmax [8]: 0.111 ng/mL
- Tmax (both sexes, 60 ug, Day 7, 60 μg s.c. daily, arithmetic mean (CV %)): 15 min
- Cmax [9]: 0.133 ng/mL
- Tmax [10]: 24 min
- Cmax [11]: 0.234 ng/mL
- Tmax (both sexes, 80 ug, Day 7, 80 μg s.c. daily, arithmetic mean (CV %)): 15.7 min
- Cmax [12]: 0.254 ng/mL
- half-life (both sexes, from 20 μg dose to 80 μg dose, s.c., read-out: mean t1/2 across dose groups): 32.8 to 46.7 min
- AUC(0-t) [1]: 0.0108 ng·h/mL
- AUC [2]: 0.0206 ng·h/mL
- AUC(0-t) [3]: 0.022 ng·h/mL
- AUC(0-inf) [13]: 0.092 ng·h/mL
- Vd/F [13]: 171 L
- half-life (both sexes, 20 ug, Day 1, 20 μg s.c., n = 1, read-out: t½ (converted)): 32.8 min
- AUC [4]: 0.0228 ng·h/mL
- AUC(0-t) [5]: 0.0755 ng·h/mL
- AUC(0-inf) [14]: 0.134 ng·h/mL
- Vd/F [14]: 247 L
- half-life (both sexes, 40 ug, Day 1, 40 μg s.c., n = 1, read-out: t½ (converted)): 34.6 min
- AUC [6]: 0.107 ng·h/mL
- CL/F [7]: 7770 mL/min
- Vd/F [7]: 477 L
- AUC(0-inf) [8]: 0.139 ng·h/mL
- AUC(0-t) [8]: 0.0965 ng·h/mL
- half-life (both sexes, 60 ug, Day 1, 60 μg s.c., mean (CV %), read-out: t½ (converted)): 41.8 min
- AUC [9]: 0.118 ng·h/mL
- CL/F [10]: 5230 mL/min
- Vd/F [10]: 361 L
- AUC(0-inf) [11]: 0.257 ng·h/mL
- AUC(0-t) [11]: 0.264 ng·h/mL
- half-life (both sexes, 80 ug, Day 1, 80 μg s.c., mean (CV %), read-out: t½ (converted)): 46.7 min
- AUC [12]: 0.286 ng·h/mL
- CL/F (20 ug, Day 1, 20 μg s.c., n = 1): 3620 mL/min
- CL/F (40 ug, Day 1, 40 μg s.c., n = 1): 4970 mL/min
- dose proportionality of AUC(0-∞) (Day 1), AUC(0-τ) (Day 7), Cmax (Day 1) and Cmax (Day 7) (increasing dose from 10 μg to 80 μg): dose proportional
- pharmacokinetic behavior, comparison AUC(0-τ) Day 7/AUC(0-∞) Day 1 (once-daily subcutaneous administration for 7 days of 60 μg and 80 μg doses): linear
Structure (SMILES): CC[C@H](C)[C@H](NC(=O)[C@H](CCC(=O)O)NC(=O)[C@H](CO)NC(=O)[C@@H](NC(=O)[C@@H](N)CO)C(C)C)C(=O)N[C@@H](CCC(N)=O)C(=O)N[C@@H](CC(C)C)C(=O)N[C@@H](CCSC)C(=O)N[C@@H](Cc1c[nH]cn1)C(=O)N[C@@H](CC(N)=O)C(=O)N[C@@H](CC(C)C)C(=O)NCC(=O)N[C@@H](CCCCN)C(=O)N[C@@H](Cc1c[nH]cn1)C(=O)N[C@@H](CC(C)C)C(=O)N[C@@H](CC(N)=O)C(=O)N[C@@H](CO)C(=O)N[C@@H](CCSC)C(=O)N[C@@H](CCC(=O)O)C(=O)N[C@@H](CCCN=C(N)N)C(=O)N[C@H](C(=O)N[C@H]1CCC(=O)NCCCC[C@@H](C(=O)N[C@@H](CC(C)C)C(=O)N[C@@H](CC(C)C)C(=O)N[C@@H](CCC(N)=O)C(=O)N[C@@H](CC(=O)O)C(=O)N[C@H](C(N)=O)C(C)C)NC(=O)[C@H](CCCN=C(N)N)NC(=O)[C@H](CC(C)C)NC(=O)[C@H](Cc2c[nH]c3ccccc23)NC1=O)C(C)C [[Leu^27]cyclo(Glu^22-Lys^26)-hPTH-(1-31)-NH2] (H-SVSEIQLMHNLGKHLNSMERVEWLRKLLQDV-NH2; lactam 22-26)
